Assay results as given in paper PMC10700596 (Nature Communications, 2023).
Several values for one entry are separate records, joined by “and”; a condition that tells them apart may be missing. Equal values may be shown once. Entries after “also recorded” stand apart in the source; their conditions may differ. Read-outs that look alike come from different tables or passages of the source.

Tests used:
AURKB = AURKB (Homo sapiens, UniProt Q96GD4); assay: biochemical; format: binding; settings: 10000 nM; read-out: Percent Control
From the text: (1 picture or pasted object on this page, not shown here)

mice [1] = format: in vivo; settings: for CFA-induced allodynia, mechanical threshold (von Frey): individual animals
CSNK1G2 = CSNK1G2 (Homo sapiens, UniProt P78368); assay: biochemical; format: binding; settings: 10000 nM; read-out: Percent Control
320 GPCRs [2] = target: 320 GPCRs (Homo sapiens, UniProt P51684); format: cell-based
Chain of 320 GPCRs (Homo sapiens, UniProt P51684) (P51684 whole entry): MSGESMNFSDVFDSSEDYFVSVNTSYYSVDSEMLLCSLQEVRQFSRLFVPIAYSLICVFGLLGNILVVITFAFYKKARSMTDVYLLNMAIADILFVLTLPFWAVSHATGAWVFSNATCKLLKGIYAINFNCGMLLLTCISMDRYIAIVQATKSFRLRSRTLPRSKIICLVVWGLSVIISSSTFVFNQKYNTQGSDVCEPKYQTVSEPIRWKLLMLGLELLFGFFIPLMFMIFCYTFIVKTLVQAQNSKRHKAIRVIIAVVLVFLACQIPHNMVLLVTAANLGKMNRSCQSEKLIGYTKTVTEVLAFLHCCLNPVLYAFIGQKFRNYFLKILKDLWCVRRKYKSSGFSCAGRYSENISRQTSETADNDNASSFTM

320 GPCRs [3] = target: 320 GPCRs (Homo sapiens, UniProt P34972); format: cell-based
Chain of 320 GPCRs (Homo sapiens, UniProt P34972) (P34972 whole entry): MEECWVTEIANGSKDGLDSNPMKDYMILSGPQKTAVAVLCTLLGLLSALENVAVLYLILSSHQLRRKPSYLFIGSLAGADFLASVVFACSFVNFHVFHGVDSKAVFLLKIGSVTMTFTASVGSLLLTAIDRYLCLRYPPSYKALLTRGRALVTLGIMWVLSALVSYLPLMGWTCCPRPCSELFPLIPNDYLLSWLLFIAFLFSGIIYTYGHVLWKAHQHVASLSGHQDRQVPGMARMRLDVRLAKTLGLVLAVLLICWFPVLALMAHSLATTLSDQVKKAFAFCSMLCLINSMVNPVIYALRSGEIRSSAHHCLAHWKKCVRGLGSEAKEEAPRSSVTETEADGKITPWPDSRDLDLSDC

320 GPCRs [4] = target: 320 GPCRs (Homo sapiens, UniProt Q96G91); format: cell-based
Chain of 320 GPCRs (Homo sapiens, UniProt Q96G91) (Q96G91 whole entry): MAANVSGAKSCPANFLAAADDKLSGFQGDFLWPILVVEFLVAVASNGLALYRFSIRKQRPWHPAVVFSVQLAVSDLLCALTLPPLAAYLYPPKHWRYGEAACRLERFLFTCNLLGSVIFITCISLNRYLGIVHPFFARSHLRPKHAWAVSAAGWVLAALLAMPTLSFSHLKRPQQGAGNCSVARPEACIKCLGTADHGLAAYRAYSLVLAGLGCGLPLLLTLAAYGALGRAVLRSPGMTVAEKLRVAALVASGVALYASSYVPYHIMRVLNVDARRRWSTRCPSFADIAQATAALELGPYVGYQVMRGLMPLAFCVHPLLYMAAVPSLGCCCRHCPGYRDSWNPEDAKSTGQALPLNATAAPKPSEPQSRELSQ

320 GPCRs [5] = target: 320 GPCRs (Homo sapiens, UniProt Q99678); format: cell-based
Chain of 320 GPCRs (Homo sapiens, UniProt Q99678) (Q99678 whole entry): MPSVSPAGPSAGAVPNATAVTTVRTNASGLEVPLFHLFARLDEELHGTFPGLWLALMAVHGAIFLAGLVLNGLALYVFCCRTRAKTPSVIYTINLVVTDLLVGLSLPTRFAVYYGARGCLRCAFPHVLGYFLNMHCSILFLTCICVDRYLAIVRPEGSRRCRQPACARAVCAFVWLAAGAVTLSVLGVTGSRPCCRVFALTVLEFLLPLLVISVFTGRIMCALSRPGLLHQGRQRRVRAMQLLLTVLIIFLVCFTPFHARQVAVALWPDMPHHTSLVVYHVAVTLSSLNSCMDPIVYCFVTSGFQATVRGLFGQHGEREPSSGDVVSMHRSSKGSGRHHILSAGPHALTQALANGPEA

320 GPCRs [6] = target: 320 GPCRs (Homo sapiens, UniProt P47901); format: cell-based
Chain of 320 GPCRs (Homo sapiens, UniProt P47901) (P47901 whole entry): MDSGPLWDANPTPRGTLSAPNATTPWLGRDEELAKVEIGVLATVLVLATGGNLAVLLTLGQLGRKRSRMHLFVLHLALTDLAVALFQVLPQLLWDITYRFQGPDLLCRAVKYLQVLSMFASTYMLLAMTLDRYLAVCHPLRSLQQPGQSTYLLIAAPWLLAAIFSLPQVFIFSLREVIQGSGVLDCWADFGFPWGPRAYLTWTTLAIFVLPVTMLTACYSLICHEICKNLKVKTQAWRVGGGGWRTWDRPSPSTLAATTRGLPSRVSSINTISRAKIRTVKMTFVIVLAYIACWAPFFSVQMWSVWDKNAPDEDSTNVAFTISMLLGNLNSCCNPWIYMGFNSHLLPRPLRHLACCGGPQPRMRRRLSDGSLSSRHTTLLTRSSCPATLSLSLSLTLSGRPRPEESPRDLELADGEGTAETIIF

320 GPCRs [7] = target: 320 GPCRs (Homo sapiens, UniProt Q9UKP6); format: cell-based
Chain of 320 GPCRs (Homo sapiens, UniProt Q9UKP6) (Q9UKP6 whole entry): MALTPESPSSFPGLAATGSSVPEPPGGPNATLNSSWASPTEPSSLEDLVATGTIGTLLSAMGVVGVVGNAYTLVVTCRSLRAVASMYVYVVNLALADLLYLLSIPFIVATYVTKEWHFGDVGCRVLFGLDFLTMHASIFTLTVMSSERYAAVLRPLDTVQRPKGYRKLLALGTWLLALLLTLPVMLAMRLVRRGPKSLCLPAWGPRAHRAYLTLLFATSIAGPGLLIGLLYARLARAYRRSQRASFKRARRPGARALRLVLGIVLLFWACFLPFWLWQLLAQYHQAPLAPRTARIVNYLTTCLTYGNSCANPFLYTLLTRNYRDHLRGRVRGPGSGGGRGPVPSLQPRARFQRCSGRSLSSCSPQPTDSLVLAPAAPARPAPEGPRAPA

320 GPCRs [8] = target: 320 GPCRs (Homo sapiens, UniProt P43115); format: cell-based
Chain of 320 GPCRs (Homo sapiens, UniProt P43115) (P43115 whole entry): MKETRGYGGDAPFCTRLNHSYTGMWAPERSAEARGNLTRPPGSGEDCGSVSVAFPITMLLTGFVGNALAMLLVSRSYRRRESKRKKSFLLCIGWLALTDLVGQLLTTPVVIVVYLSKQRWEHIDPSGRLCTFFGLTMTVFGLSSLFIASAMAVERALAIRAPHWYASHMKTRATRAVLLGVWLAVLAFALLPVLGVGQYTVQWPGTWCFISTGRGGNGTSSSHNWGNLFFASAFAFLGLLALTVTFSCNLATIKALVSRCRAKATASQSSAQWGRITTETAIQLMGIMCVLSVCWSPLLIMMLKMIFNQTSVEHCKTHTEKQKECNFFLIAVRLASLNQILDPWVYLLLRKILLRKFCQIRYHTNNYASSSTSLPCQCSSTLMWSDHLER

320 GPCRs [9] = target: 320 GPCRs (Homo sapiens, UniProt P21731); format: cell-based
Chain of 320 GPCRs (Homo sapiens, UniProt P21731) (P21731 whole entry): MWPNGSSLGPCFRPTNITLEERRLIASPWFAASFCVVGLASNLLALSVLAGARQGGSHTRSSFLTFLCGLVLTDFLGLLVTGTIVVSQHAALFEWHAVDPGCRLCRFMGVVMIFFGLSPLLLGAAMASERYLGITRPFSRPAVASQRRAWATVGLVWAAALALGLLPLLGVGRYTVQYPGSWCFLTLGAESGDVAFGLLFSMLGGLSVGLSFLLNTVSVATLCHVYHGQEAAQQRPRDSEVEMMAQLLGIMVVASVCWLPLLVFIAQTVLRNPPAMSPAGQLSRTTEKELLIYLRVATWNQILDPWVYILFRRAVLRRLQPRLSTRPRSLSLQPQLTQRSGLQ

320 GPCRs [10] = target: 320 GPCRs (Homo sapiens, UniProt P47871); format: cell-based
Chain of 320 GPCRs (Homo sapiens, UniProt P47871) (P47871 26-477): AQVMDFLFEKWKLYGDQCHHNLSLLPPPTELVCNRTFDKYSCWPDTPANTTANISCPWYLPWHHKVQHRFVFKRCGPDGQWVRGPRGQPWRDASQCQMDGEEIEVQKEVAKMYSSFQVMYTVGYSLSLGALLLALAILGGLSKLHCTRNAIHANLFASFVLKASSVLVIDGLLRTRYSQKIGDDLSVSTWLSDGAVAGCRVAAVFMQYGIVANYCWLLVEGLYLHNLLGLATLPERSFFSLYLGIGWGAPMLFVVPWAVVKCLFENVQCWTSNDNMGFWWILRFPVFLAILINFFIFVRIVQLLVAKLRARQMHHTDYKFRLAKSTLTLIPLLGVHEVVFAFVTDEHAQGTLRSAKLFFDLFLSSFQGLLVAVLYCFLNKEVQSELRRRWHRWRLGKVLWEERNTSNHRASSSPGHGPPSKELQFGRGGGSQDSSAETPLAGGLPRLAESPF

320 GPCRs [11] = target: 320 GPCRs (Homo sapiens, UniProt P37288); format: cell-based
320 GPCRs [12] = target: 320 GPCRs (Homo sapiens, UniProt P49019); format: cell-based
Chain of 320 GPCRs (Homo sapiens, UniProt P49019) (P49019 whole entry): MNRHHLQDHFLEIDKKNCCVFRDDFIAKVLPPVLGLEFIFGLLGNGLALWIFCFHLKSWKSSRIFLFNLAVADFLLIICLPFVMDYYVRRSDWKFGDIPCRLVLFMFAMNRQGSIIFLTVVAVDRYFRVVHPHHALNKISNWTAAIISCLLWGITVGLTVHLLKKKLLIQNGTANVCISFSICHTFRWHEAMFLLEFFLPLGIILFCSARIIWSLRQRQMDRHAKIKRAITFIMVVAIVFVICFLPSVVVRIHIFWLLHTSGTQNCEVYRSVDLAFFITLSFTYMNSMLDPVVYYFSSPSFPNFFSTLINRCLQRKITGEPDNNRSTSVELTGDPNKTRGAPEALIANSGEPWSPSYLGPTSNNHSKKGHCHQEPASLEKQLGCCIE

320 GPCRs [13] = target: 320 GPCRs (Homo sapiens, UniProt P30968); format: cell-based
Chain of 320 GPCRs (Homo sapiens, UniProt P30968) (P30968 whole entry): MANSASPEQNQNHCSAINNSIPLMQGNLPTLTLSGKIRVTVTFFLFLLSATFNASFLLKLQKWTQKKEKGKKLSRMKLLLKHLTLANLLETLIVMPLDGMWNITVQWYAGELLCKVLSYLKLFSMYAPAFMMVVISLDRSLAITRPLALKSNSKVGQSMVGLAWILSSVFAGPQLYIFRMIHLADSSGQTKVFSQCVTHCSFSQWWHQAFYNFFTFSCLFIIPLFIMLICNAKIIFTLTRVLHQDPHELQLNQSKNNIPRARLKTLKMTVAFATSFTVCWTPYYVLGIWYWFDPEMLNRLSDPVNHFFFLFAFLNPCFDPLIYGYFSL

320 GPCRs [14] = target: 320 GPCRs (Homo sapiens, UniProt Q8TDV0); format: cell-based
320 GPCRs [15] = target: 320 GPCRs (Homo sapiens, UniProt Q13304); format: cell-based
Chain of 320 GPCRs (Homo sapiens, UniProt Q13304) (Q13304 whole entry): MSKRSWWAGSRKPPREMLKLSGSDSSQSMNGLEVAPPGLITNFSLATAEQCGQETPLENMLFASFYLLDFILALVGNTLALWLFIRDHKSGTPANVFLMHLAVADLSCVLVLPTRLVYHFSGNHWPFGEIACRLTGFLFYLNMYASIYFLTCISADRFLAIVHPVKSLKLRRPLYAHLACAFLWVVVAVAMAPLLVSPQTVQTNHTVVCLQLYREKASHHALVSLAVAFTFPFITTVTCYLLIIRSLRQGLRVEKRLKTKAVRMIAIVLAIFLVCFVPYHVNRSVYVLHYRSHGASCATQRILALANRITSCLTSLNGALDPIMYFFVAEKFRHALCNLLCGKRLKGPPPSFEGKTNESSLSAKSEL

320 GPCRs [16] = target: 320 GPCRs (Homo sapiens, UniProt P43088); format: cell-based
Chain of 320 GPCRs (Homo sapiens, UniProt P43088) (P43088 whole entry): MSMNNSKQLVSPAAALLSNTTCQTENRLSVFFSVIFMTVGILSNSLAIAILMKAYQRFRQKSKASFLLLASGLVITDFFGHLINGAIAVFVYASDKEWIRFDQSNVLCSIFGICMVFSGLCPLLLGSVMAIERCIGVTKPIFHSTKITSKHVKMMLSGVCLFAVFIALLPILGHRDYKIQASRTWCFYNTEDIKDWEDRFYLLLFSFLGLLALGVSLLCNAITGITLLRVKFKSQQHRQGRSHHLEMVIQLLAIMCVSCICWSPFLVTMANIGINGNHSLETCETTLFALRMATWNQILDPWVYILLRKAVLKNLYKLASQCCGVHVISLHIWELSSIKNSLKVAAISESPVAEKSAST

EP1R = EP1R (Homo sapiens, UniProt P34995); assay: Radioligand (3H-PGE2) displacement assay at EP1R; format: binding
mice [17] = format: in vivo
Protocol: For all behavioral tests, the experimenter was always blind to treatment. Animals were habituated for 60 min in Plexiglas cylinders before testing. […] For 10 mg/kg doses, compounds were prepared in 2.5 mg/ml solutions of which 100 µL were administered to mice (average weight 25 g). For 30 mg/kg doses, 7.5 mg/ml solutions were prepared. […] Hindpaw mechanical thresholds were determined with von Frey filaments using the up-down method, 60 min after administration of the EP4R antagonists (i.p. or via oral gavage). For the ambulatory (rotarod) test, mice were first trained on an accelerating rotating rod, 3 times for 5 minutes, before testing with any compound. On the test day, latency to fall from the rod was measured 1 h after injection of the compound. The cutoff was 300 s. Statistical tests were performed with GraphPad Prism 9.0 (GraphPad Software Inc., San Diego).

mice [18] = format: in vivo; parameters: Paw Thickness / Paw thickness AVG 30 / Paw thickness AVG 60 / Paw thickness AVG 120: unit not given here; settings: for Paw Thickness: duplicate readings; for Paw thickness %BL CARR: used for Figure 3E
[19] = 30 min, Carrageenan 30 µg, Group Average of 5 mice
[20] = 30 min, Carrageenan 30 µg, individual mouse
[21] = 60 min, Carrageenan 30 µg, Group Average of 5 mice
[22] = 60 min, Carrageenan 30 µg, individual mouse
[23] = 120 min, Carrageenan 30 µg, Group Average of 5 mice
[24] = 120 min, Carrageenan 30 µg, individual mouse
[25] = 180 min, Carrageenan 30 µg, Group Average of 5 mice
[26] = 180 min, Carrageenan 30 µg, individual mouse
[27] = 24 hours, Carrageenan 30 µg, Group Average of 5 mice
[28] = 24 hours, Carrageenan 30 µg, individual mouse

Compound: O=C(O)C1CCC2(CC1)CC(Nc1ncnc3[nH]c4c(F)cccc4c13)C2 (stereo not drawn) [Compound 74, OC(=O)C1CCC2(CC(C2)NC=3N=CN=C4NC=5C(F)=CC=CC5C34)CC1]
- remaining activity at 10 µM (AURKB): 8.2%
- CFA-induced allodynia, mechanical threshold (von Frey) (mice [1]; 10 mg/kg IP, day 3): 31.5 and 39 and 36.3 and 64.2 and 20.2
- CFA-induced allodynia, mechanical threshold (von Frey) (mice [1]; 30 mg/kg IP, day 4): 35.4 and 28.1 and 62 and 31.3 and 22.9
- effect on CFA-induced mechanical allodynia (mice [1]; 10 and 30 mg/kg i.p.): significantly decreased; also recorded: reduced
- remaining activity at 10 µM (CSNK1G2): 54%
- RLU (Fold over Basal) (320 GPCRs [2]): 0.7 Fold over Basal and 1 Fold over Basal and 0.9 Fold over Basal
- RLU (Fold over Basal) (320 GPCRs [3]): 2.1 Fold over Basal and 1.3 Fold over Basal and 1.7 Fold over Basal and 1.5 Fold over Basal
- RLU (Fold over Basal) (320 GPCRs [4]): 1 Fold over Basal and 0.7 Fold over Basal and 1.1 Fold over Basal and 1.4 Fold over Basal
- RLU (Fold over Basal) (320 GPCRs [5]): 0.9 Fold over Basal and 1.6 Fold over Basal and 0.8 Fold over Basal
- RLU (Fold over Basal) (320 GPCRs [6]): 0.9 Fold over Basal and 1 Fold over Basal and 0.5 Fold over Basal
- RLU (Fold over Basal) (320 GPCRs [7]): 0.6 Fold over Basal and 0.7 Fold over Basal and 0.9 Fold over Basal
- RLU (Fold over Basal) (320 GPCRs [8]): 0.5 Fold over Basal and 0.7 Fold over Basal
- RLU (Fold over Basal) (320 GPCRs [9]): 1.2 Fold over Basal and 1.1 Fold over Basal and 0.7 Fold over Basal
- RLU (Fold over Basal) (320 GPCRs [10]): 1 Fold over Basal and 0.5 Fold over Basal and 0.8 Fold over Basal
- RLU (Fold over Basal) (320 GPCRs [11]): 0.7 Fold over Basal and 1.1 Fold over Basal
- RLU (Fold over Basal) (320 GPCRs [12]): 0.9 Fold over Basal and 0.7 Fold over Basal and 1 Fold over Basal
- RLU (Fold over Basal) (320 GPCRs [13]): 1 Fold over Basal and 0.5 Fold over Basal and 0.6 Fold over Basal
- RLU (Fold over Basal) (320 GPCRs [14]): 0.9 Fold over Basal and 0.8 Fold over Basal and 1.1 Fold over Basal
- RLU (Fold over Basal) (320 GPCRs [15]): 0.4 Fold over Basal and 0.6 Fold over Basal and 0.5 Fold over Basal
- RLU (Fold over Basal) (320 GPCRs [16]): 1.2 Fold over Basal and 1.4 Fold over Basal and 1 Fold over Basal
- binding to EP1 receptor (EP1R): no binding

Compound: O=C([O-])C1CCC2(CC1)CC(Nc1ncnc3[nH]c4c(F)cccc4c13)C2.[Na+] (stereo not drawn) [Compound 77, [Na+].[O-]C(=O)C1CCC2(CC(C2)NC=3N=CN=C4NC=5C(F)=CC=CC5C34)CC1]
- Rotarod latency to fall (mice [17]; 30 mg/kg IP, 1 h after injection, cutoff 300 s, individual animals): 300 s and 281 s and 295 s and 269 s
- motor impairment in the rotarod test (mice [17]; mouse, in vivo): did not induce motor impairment
- Uninjured mice, individual animal values (Supplementary Figure 10A) (mice [17]; uninjured mice, IP 30 mg/kg, single animals, 30 mg/kg): 116 and 71.5 and 93.5 and 86.1 and 110.4
- effect on carrageenan-induced paw edema (mice [18]; 30 mg/kg i.p., one day after carrageenan): significantly reduced
- Paw thickness %BL CARR, Group Average (mice [18]; [19]): 92.2% and 96.7%
- Paw thickness %Baseline, Group Average (mice [18]; [19]): 118.7% and 118.1%
- Paw thickness AVG 30, Group Average (mice [18]; [19]): 2.0
- Paw thickness %Baseline (mice [18]; [20]): 122.7% and 124.6% and 120.5% and 111.5% and 114.1% and 116.5% and 122.2% and 107.4% and 119.7% and 124.9%
- Paw thickness AVG 30 (mice [18]; [20]): 2.0 and 2.2 and 2.1 and 1.9 and 1.8
- Paw Thickness (mice [18]; [20]): 1.9 and 2.04 and 2.2 and 2.1 and 2.14 and 2.06 and 1.98 and 2.08 and 1.95 and 1.77 and 1.88 and 2 and 2.13 and 2.02
- Paw thickness %BL CARR (mice [18]; [20]): 89.5% and 101.4% and 91.7% and 92.1% and 86.4% and 102.3% and 101.6% and 84.9% and 96.7% and 98.1%
- Paw thickness %BL CARR, Group Average (mice [18]; [21]): 91.8% and 95.5%
- Paw thickness %Baseline, Group Average (mice [18]; [21]): 118.2% and 116.8%
- Paw thickness AVG 60, Group Average (mice [18]; [21]): 2.0
- Paw thickness %Baseline (mice [18]; [22]): 124.6% and 118.8% and 118.2% and 112.4% and 117.1% and 109.8% and 115.0% and 114.7% and 118.3% and 126.1%
- Paw thickness AVG 60 (mice [18]; [22]): 2.0 and 2.1 and 1.9
- Paw Thickness (mice [18]; [22]): 2.1 and 1.9 and 2 and 2.02 and 1.97 and 1.98 and 2.05 and 2.09 and 2.2
- Paw thickness %BL CARR (mice [18]; [22]): 90.9% and 96.7% and 89.9% and 92.8% and 88.6% and 96.4% and 95.6% and 90.7% and 99.1%
- Paw thickness %BL CARR, Group Average (mice [18]; [23]): 89.1% and 94.8%
- Paw thickness %Baseline, Group Average (mice [18]; [23]): 114.9% and 115.9%
- Paw thickness AVG 120, Group Average (mice [18]; [23]): 2.0
- Paw thickness %Baseline (mice [18]; [24]): 126.2% and 111.6% and 112.4% and 111.0% and 113.2% and 111.3% and 115.8% and 115.9% and 114.2% and 122.2%
- Paw thickness AVG 120 (mice [18]; [24]): 2.0 and 1.9 and 2.1
- Paw Thickness (mice [18]; [24]): 2 and 2.05 and 1.9 and 1.95 and 2.04 and 2.1 and 2.07 and 1.91 and 2.03 and 1.94 and 1.97
- Paw thickness %BL CARR (mice [18]; [24]): 92.0% and 90.8% and 85.5% and 91.6% and 85.7% and 97.7% and 96.3% and 92.3% and 96.0%
- Paw thickness %BL CARR, Group Average (mice [18]; [25]): 89.9% and 92.7%
- Paw thickness %Baseline, Group Average (mice [18]; [25]): 115.8% and 113.3%
- Paw thickness AVG 180, Group Average (mice [18]; [25]): 2.0
- Paw thickness %Baseline (mice [18]; [26]): 125.5% and 114.5% and 111.0% and 112.4% and 115.6% and 112.7% and 106.9% and 111.8% and 115.9% and 118.9%
- Paw thickness AVG 180 (mice [18]; [26]): 2.0 and 1.9
- Paw Thickness (mice [18]; [26]): 2.03 and 2 and 1.95 and 1.9 and 2.09 and 2.02 and 1.91 and 1.99 and 1.96
- Paw thickness %BL CARR (mice [18]; [26]): 91.6% and 93.2% and 84.4% and 92.8% and 87.5% and 99.0% and 88.9% and 88.4% and 93.7% and 93.4%
- Paw thickness %BL CARR, Group Average (mice [18]; [27]): 85.7% and 94.0%
- Paw thickness %Baseline, Group Average (mice [18]; [27]): 110.4% and 114.8%
- Paw thickness AVG 24h, Group Average (mice [18]; [27]): 1.9 and 2.0
- Paw thickness %Baseline (mice [18]; [28]): 118.4% and 111.0% and 109.2% and 105.9% and 107.4% and 115.6% and 114.7% and 114.5% and 120.1%
- Paw thickness AVG 24h (mice [18]; [28]): 1.9 and 1.8 and 2.0
- Paw Thickness (mice [18]; [28]): 1.9 (2×) and 1.83 and 2 and 1.92 and 1.87 and 1.84 and 1.8 and 1.85 and 1.93 and 1.95 (2×)
- Paw thickness %BL CARR (mice [18]; [28]): 86.4% and 90.3% and 83.1% and 87.4% and 81.3% and 101.5% and 90.8% and 90.7% and 92.5% and 94.3%
